Measurements: article PMC7281429, “Chromenopyrimidinone Controls Stemness and Malignancy by suppressing CD133 Expression in Hepatocellular Carcinoma” (Cancers, 2020)

Biological target: T1, topoisomerase I (Homo sapiens, UniProt P11387)
T1 construct: gene TOP1
T1 sequence (P11387 2-765): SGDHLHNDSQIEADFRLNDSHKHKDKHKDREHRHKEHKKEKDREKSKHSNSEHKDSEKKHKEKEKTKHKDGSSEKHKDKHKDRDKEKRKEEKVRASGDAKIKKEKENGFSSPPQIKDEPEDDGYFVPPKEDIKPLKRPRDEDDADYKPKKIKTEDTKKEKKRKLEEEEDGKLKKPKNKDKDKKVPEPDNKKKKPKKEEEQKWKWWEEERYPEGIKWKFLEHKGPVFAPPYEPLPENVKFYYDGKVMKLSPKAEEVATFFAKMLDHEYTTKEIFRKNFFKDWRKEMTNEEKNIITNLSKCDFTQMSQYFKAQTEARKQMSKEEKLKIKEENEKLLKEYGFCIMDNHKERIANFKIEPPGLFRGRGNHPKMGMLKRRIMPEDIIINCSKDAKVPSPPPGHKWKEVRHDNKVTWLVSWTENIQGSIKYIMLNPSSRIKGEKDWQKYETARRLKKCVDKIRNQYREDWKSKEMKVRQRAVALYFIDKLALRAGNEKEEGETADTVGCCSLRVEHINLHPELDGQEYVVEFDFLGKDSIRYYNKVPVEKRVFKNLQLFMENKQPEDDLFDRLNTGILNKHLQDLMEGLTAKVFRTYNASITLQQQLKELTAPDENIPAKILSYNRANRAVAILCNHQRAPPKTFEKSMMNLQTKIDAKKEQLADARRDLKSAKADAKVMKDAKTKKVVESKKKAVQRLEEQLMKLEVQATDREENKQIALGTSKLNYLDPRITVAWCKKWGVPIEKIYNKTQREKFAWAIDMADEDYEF
Assay: plasmid DNA relaxation assay (supercoiled pBR322, agarose gel) with commercial human topoisomerase I
Assay type: biochemical

- EC50: 3.6 µM
Compound: O=c1[nH]c(-c2ccc(O)cc2)nc2c1Cc1c(ccc3ccccc13)O2 [CPO, chromenopyrimidinone]
